Nine compounds from patent publication US6887896B1, “7-[(7-Alkoxy)-chrom-3-en-6-yl]-heptatrienoic acid and 7-[(3-alkoxy)-5,6-dihydronaphthalen-2-yl]-heptatrienoic acid derivatives having serum glucose reducing activity” (Allergan, Inc., priority 2003, dated 2005) can be followed below.

Assay [1] has as its target T1, RARβ (Homo sapiens, UniProt P10826).
T1 sequence (P10826 183-417 limits assumed): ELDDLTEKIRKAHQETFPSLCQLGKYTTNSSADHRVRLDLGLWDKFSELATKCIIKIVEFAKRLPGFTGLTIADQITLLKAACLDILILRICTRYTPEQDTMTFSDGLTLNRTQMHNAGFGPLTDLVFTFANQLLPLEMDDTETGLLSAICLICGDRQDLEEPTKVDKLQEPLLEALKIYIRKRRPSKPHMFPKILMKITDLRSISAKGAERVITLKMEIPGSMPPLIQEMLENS
In words: chimeric receptor transactivation assay, RARβ. Format: cell-based. The following applies: for EC50: chimeric receptor transactivation, read-out: RAR Trans. EC50 β; for Emax: percentage compared to the standard compound, read-out: RAR Trans. efficacy (number in parentheses) β. The text has this: Specifically, one such assay is a chimeric receptor transactivation assay which tests for agonist-like activity in the R RAPE and RAR7 receptor subtypes, and which is based on work published by Feigner, P. L. and Holm, M (1989) Focus, 112 is described in detail in U.S. Pat. No. 5,455,265. The specification of U.S. Pat. No. 5,455,265 is hereby expressly incorporated by reference. A holoreceptor transactivation assay and a ligand binding assay which measure the antagonist/agonist like activity of the compounds of the invention, or their ability to bind to the several retinoid receptor subtypes, respectively, are described in published PCT Application No. WO WO93/11755 (particularly on pages 30-33 and 37-41) published on Jun. 24, 1993, the specification of which is also incorporated herein by reference. A detailed experimental procedure for holoreceptor transactivations has been described by Heyman et al. Cell 68, 397-406, (1992); Allegretto et al. J. Biol. Chem. 268, 26625-26633, and Mangelsdorf et al. The Retinoids: Biology, Chemistry and Medicine, pp 319-349, Raven Press Ltd., New York, which are expressly incorporated herein by reference. The results obtained in this assay are expressed in EC50 numbers, as they are also in the chimeric receptor transactivation assay. The results of the ligand binding assay are expressed in Ki numbers. (See Cheng et al. Biochemical Pharmacology Vol. 22 pp 3099-3108, expressly incorporated herein by reference.)
Efficacy in a transactivation assay is expressed as a percentage of the maximum potency attained by the compound compared to a standard which, in this case, is the compound named (2E,4E,1′S,2′S)-3-methyl-5-[2′-methyl-2′-(5,5,8,8-tetramethyl-5,6,7,8-tetrahydro-naphthalen-2-yl)-cyclopropyl]-penta-2,4-dienoic acid. This standard compound is described in U.S. Pat. No. 6,114,533.
The specification of this application for patent is organized in several sections in accordance with structural Formulas A through F each of which discloses a group of preferred compounds within the scope of the invention. Tables that disclose the activity of certain exemplary compounds of the invention in the above-described RXR receptor transactivation and binding assays are found in the corresponding sections. […] The transactivation data pertaining to the activation of RXR receptors were obtained in the holoreceptor assay.
Generally speaking, in the tables disclosing the results of transactivation and binding assays the numbers in parentheses indicate efficacy as a percentage compared to the standard compound, (2E,4E,1′S,2′S)-3-methyl-5-[2′-methyl-2′-(5,5,8,8-tetramethyl-5,6,7,8-tetrahydro-naphthalen-2-yl)cyclopropyl]-penta-2,4-dienoic acid and the other numbers indicate the measured EC50 and K; in nanomolar concentration.

Assay [2] concerns the target T2, RXRβ (UniProt P28704).
T2 sequence (P28704 1-520): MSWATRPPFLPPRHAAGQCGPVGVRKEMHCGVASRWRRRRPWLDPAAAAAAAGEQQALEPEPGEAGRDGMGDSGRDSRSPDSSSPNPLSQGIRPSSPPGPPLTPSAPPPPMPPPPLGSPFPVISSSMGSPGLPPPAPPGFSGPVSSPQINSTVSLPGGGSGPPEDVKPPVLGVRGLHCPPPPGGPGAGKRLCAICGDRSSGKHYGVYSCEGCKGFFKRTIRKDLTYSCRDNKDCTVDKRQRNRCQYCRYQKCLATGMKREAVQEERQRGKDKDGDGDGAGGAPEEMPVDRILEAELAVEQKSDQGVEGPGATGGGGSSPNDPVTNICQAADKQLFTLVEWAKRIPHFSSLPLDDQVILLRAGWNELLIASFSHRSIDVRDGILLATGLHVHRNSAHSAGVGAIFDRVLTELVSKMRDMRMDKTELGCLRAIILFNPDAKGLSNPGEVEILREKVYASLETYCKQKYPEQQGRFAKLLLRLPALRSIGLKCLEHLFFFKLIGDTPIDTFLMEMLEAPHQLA
In words: holoreceptor transactivation assay, RXRβ. Format: cell-based. The following applies: for EC50: holoreceptor transactivation, read-out: RXR Trans. EC50 β; for RXR Trans. efficacy (number in parentheses) β: percentage compared to the standard compound. In outline: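 Cells carrying either full-length RXR (holoreceptor) or chimeric RAR receptors were exposed to compound and reporter transactivation recorded. Potency was expressed as EC50 in nanomolar. Efficacy was expressed as percent of the maximal response of a reference cyclopropyl-tetramethyltetrahydronaphthalene penta-2,4-dienoic acid.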

Assay [3] has as its target T3, RARβ (Homo sapiens, UniProt P10826).
T3 sequence (P10826 1-455): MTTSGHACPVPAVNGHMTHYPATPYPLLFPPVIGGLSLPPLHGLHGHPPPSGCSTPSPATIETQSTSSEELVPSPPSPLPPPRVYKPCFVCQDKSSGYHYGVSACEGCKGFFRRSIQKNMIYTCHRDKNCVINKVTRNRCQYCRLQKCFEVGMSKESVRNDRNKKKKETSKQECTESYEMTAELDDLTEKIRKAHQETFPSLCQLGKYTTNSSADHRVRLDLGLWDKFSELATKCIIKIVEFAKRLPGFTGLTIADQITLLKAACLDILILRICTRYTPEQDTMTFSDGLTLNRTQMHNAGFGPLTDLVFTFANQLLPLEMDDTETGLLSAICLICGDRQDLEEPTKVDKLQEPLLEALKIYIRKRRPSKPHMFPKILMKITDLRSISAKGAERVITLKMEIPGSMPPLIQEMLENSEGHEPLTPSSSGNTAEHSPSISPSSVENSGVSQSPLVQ
Description: ligand binding assay, RARβ. To be noted: for Kd: Table 9 (Formula F), read-out: RAR β Kd; for Ki: read-out: RAR Bind. Ki β. In outline: (§1)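 Binding of compounds to several retinoid receptor subtypes was measured. Results are given as Ki values in nanomolar concentration, derived per Cheng et al.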

Assay [4] addresses T4, RARγ (Homo sapiens, UniProt P13631).
T4 sequence (P13631 1-454): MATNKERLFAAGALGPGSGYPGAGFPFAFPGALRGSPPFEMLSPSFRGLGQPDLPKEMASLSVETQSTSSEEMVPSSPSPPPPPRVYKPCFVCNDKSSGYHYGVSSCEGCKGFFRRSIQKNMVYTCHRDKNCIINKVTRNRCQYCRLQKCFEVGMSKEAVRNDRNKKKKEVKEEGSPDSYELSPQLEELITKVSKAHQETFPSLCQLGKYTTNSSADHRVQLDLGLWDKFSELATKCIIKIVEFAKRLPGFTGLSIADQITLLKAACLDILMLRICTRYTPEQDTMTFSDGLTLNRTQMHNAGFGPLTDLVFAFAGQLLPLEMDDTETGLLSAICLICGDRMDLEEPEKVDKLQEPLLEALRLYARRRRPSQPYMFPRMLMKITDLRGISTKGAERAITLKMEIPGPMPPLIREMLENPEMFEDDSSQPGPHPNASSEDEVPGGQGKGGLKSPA
Description: ligand binding assay, RARγ. To be noted: for Kd: Table 9 (Formula F), read-out: RAR γ Kd; for Ki: read-out: RAR Bind. Ki γ. In outline: as §1

Assay [5] concerns the target T2, RXRβ. In words: ligand binding assay, RXRβ. To be noted: for Kd: Table 9 (Formula F), read-out: RXR β Kd; for Ki: read-out: RXR Bind Ki β. In outline:
as §1

Bounds are passed on as bounds.

For the compound `CCOc1c(\C(CC)=C(F)/C=C/C(C)=C/C(=O)O)cc2c(c1Br)C(C)(C)CC=C2C(C)C` [Compound A-170, (2E,4E,6E)-7-(4-Bromo-3-ethoxy-8-isopropyl-5,5-dimethyl-5,6-dihydro-naphthalen-2-yl)-6-fluoro-3-methyl-nona-2,4,6-trienoic acid], the EC50 in assay [1] is 3.5 nM; in assay [2], 1 nM. Besides, the Emax in assay [1] came out at 8%. The “RXR Trans. efficacy (number in parentheses) β” value (from here on “RXR Trans. efficacy”) in assay [2] came to 59%. Further, the Kd in assay [3] was 56 nM; in assay [4] it was 507 nM; in assay [5] it was 14 nM.
Regarding `COc1cc2c(cc1\C(C)=C(F)/C=C/C(C)=C/C(=O)O)C(C(C)C)=CC(C)(C)O2` [Compound 121, (2E,4E,6E)-6-Fluoro-7-(4-isopropyl-7-methoxy-2,2-dimethyl-2H-chromen-6-yl)-3-methyl-octa-2,4,6-trienoic acid], the EC50 in assay [1] was 46600 nM; in assay [2] it was 51 nM. The “RXR Trans. efficacy” value in assay [2] came to 72%. The Ki in assay [3] came out at 2100 nM; in assay [4] it was 8800 nM; in assay [5], 33 nM.
For the compound `CCOc1cc2c(cc1\C(=C/C=C/C(C)=C/C(=O)O)CC)C(C)=CCC2(C)C` [Compound A-16, 7-(3-Ethoxy-5,5,8-trimethyl-5,6-dihydronaphthalen-2-yl)-3-methyl-nona-2E,4E,6Z-trienoic acid], the EC50 turned out to be 242 nM in assay [1] and 191 nM in assay [2]. Besides, in assay [1], the Emax was determined as 21%. Further, in assay [2], the “RXR Trans. efficacy” value is 37%. Further, the Ki was 610 nM in assay [3], 3800 nM in assay [4] and 49 nM in assay [5].
In the case of `CC/C(=C(F)/C=C/C(C)=C/C(=O)O)c1cc2c(cc1OC)OC(C)(C)C=C2C` [Compound 129, 6-Fluoro-7-(7-methoxy-2,2,4-trimethyl-2H-chromen-6-yl)-3-methyl-nona-2E,4E,6E-trienoic acid], the EC50 is 563 nM in assay [1] and 843 nM in assay [2]. The Emax in assay [1] came out at 24%. The “RXR Trans. efficacy” value in assay [2] came out at 151%. The Ki in assay [3] is 490 nM; in assay [4], 4700 nM; in assay [5], 625 nM.
Regarding `CCOc1cc2c(cc1\C(C)=C/C=C/C(C)=C/C(=O)O)C(C(C)(C)C)=CCC2(C)C` [Compound A-17, 7-(8-tert-Butyl-3-ethyloxy-5,5-dimethyl-5,6-dihydronaphthalen-2-yl)-3-methyl-octa-2E,4E,6Z-trienoic acid], the EC50 in assay [1] is 50 nM; in assay [2] it was 3.2 nM. Also, in assay [1], the Emax came out at 7%. Further, in assay [2], the “RXR Trans. efficacy” value was 72%. The Ki in assay [3] worked out at 401 nM; in assay [4] it was 1900 nM; in assay [5] it was 16 nM.
On to `COc1c(\C(C)=C/C=C/C(C)=C/C(=O)O)cc2c(c1Cl)OC(C)(C)C=C2C(C)C` [Compound 49, 7-(8-Chloro-4-isopropyl-7-methoxy-2,2-dimethyl-2H-chromen-6-y)-3-methyl-octa-2E,4E,6Z-trienoic acid], for which the results for the EC50 in assay [1] and in assay [2] were 132 nM and 0.9 nM, respectively. Also, the Emax in assay [1] is 12%. Also, the “RXR Trans. efficacy” value in assay [2] came out at 98%. Moreover, the Ki was 4100 nM in assay [3], greater than 10000 nM in assay [4] and 20 nM in assay [5].
For `CCOc1c(\C(CC)=C(F)/C=C/C(C)=C/C(=O)O)cc2c(c1Cl)C(C)(C)CC=C2C(C)C` [Compound A-178, (2E,4E,6E)-7-(4-Chloro-3-ethoxy-8-isopropyl-5,5-dimethyl-5,6-dihydronaphthalen-2-yl)-6-fluoro-3-methyl-nona-2,4,6-trienoic acid], the EC50 was 9 nM in assay [1] and 0.5 nM in assay [2]. Besides, in assay [1], the Emax was found to be 26%. The “RXR Trans. efficacy” value in assay [2] is reported as 53%. Also, the Kd in assay [3] was determined as 79 nM; in assay [4] it was 449 nM; in assay [5], 11 nM.
For the compound `CC/C(=C/C=C/C(C)=C/C(=O)O)c1cc2c(cc1OC)OC(C)(C)C=C2C(C)C` [Compound 44, 7-(4-Isopropyl-7-methoxy-22-dimethyl-2H-chromen-6-yl)-3-methyl-nona-2E,4E,6Z-trienoic acid], the EC50 in assay [1] came out at 75 nM; in assay [2], 4.4 nM. In assay [1], the Emax was determined as 25%. Besides, the “RXR Trans. efficacy” value in assay [2] turned out to be 94%. Besides, the values for the Ki in assay [3], in assay [4] and in assay [5] were 617 nM, 3500 nM and 38 nM, respectively.
As to `CCOc1cc2c(cc1\C(CC)=C(F)/C=C/C(C)=C/C(=O)O)C(CC)=CCC2(C)C` [Compound A-78, (2E,4E,6E)-7-(3-Ethoxy-8-ethyl-5,5-dimethyl-5,6-dihydro-naphthalen-2-yl)-6-fluoro-3-methyl-nona-2,4,6-trienoic acid], the figures for the EC50 in assay [1] and in assay [2] were 43 nM and 18 nM, respectively. Moreover, the Emax in assay [1] amounted to 68%. In addition, the “RXR Trans. efficacy” value in assay [2] is given as 23%. The Ki in assay [3] came out at 477 nM; in assay [4] it was 2200 nM; in assay [5], 19 nM.

Broadly, the EC50 is the concentration giving half of the maximal effect. For orientation: Kd means the constant that tells how readily two partners part at equilibrium. In general, Ki refers to the equilibrium dissociation constant of an inhibitor or competing ligand from its target.
